Columns and labels:
[1] = test system: rat spinal canal stenosis (cauda equina compression-induced walking dysfunction) model; test: Rat spinal canal stenosis model, walking ability test; format: in vivo; conditions: treadmill; for walk distance compared with the solvent repetitive administration group: 14th day of repetitive administration; for Inventive compound repetitive administration group (average distance (m)): 14th day of repetitive administration started 4th day after operation, 7 or 8 animals
Excerpt: A rat spinal canal stenosis (cauda equina compression-induced walking dysfunction) model can be prepared according to the method of Nakai, K et al. (Anesth. Analg., 94, pp. 1537-1541 (2002)) or the like. Namely, a rat is anesthetized with pentobarbital sodium, shaved on the back, and fixed in the abdominal position. After disinfection on the back with Isodine Surgical Scrub (Meiji Seika), a lumbar part is cut open along the median to expose the spine. Then, a silicone rubber of 1×4×1.5 mm (height×length×width) is inserted into the fifth lumbar vertebral canal from a small hole on the vertebral arch. Benzylpenicillin potassium (Crystalline Penicillin G Potassium Meiji, Meiji Seika) is dropped on the opened lesion and intramuscularly injected in the femoral region for the purpose of evasion of infectious diseases. The muscles and skin of the opened lesion are sutured with a ligature, and Isodine Surgical Scrub is applied to the sutured portion. Animals of sham group are also prepared according to the aforementioned method, provided that silicone rubber is not inserted.
In walking ability test, evaluation is performed by using a treadmill (Muromachi Kikai). A rat is placed on a traveling belt, adapted to the environment more than 3 minutes under a grid-electrified condition (0.04 to 4 mA), and then made to start walking from a velocity of 10 m/min, and then the velocity is increased by 5 m/min every 3 minutes. The walk is stopped, and electrical stimulation (0.04 to 4 mA) is applied to the rat which has moved to the grid for electrical stimulation provided before the traveling belt. Distance which the animal walked after the animal started the walk until the animal became unable to walk, i.e., the animal came not to walk even if a stimulation (sound, contact, electricity) was added to the animal to urge it to walk, was calculated from the walking time. Before the operation, the walking function test is carried out 3 times to perform training of walk. From the 4th day after the operation, repetitive administration of each compound of the present invention as a test compound was started, and the walking ability test was performed on the 14th day of the administration for the measurement.
Each group consisted of 7 or 8 animals, and the average distance before the administration was the average for the animals of both groups. […] It was confirmed that the compounds of the present invention were useful as medicaments for therapeutic treatment of a disease accompanied by walking dysfunction such as spinal canal stenosis.

[2] = test system: mouse neuroblastoma cell strain N1E-115; test: Inhibitory effect on neurite retraction (LPA-induced); format: cell-based; conditions: mouse/rat NG108-15; 10 μM compound, 1 μM LPA, N1E-115 cells
Experimental: An experiment for Inhibitory effect on neurite retraction using mouse neuroblastoma cell strain N1E-115 was performed according to the method of Hirose, M. et al. (J. Cell. Biol., 141, pp. 1625-1636 (1998)). This method utilizes the fact that LPA (lysophosphatidic acid), which is a endogenous substance, induces neurite retraction, and is a method of evaluating how much a drug can inhibit the LPA-induced neurite retraction and thereby evaluating potency of inhibition of neuronal degeneration and potency of neuronal regeneration of the drug. N1E-115 cells cultured in a DMEM solution containing 20% heat-inactivated fetal bovine serum were plated on a 6-well plate (IWAKI) at a density of 40,000 cells/well, and cultured overnight at 37° C. in the same culture medium in a 5% CO2 incubator. In order to induce differentiation of the N1E 115 cells into nerve cells, the culture medium was changed to the serum-free DMEM solution, and the cells were cultured for 1 or 2 days at 37° C. in the 5% CO2 incubator until most of the cells extended the neurites. On the examination day, each compound of the present invention was added at a final concentration of 10 μM, incubation was performed for 30 minutes, then LPA (Sigma) was added at a final concentration of 1 μM, and incubation was further performed for 10 minutes. To the control, the same volume of phosphate buffered saline as the solvent was added. After completion of the incubation, glutaraldehyde was added at a final concentration of 5% to fix the cells. […] The inhibition rate (%) of each drug was calculated by using the following equation. Inhibition rate(%)=100−(RCP obtained with drug to be evaluated−RCP of control)/(RCP obtained with LPA−RCP of control)×100

TNF-α production = test: Inhibitory effect on TNF-α production in mice (LPS); format: in vivo, BALB/c mice; conditions: Mus musculus, 1.5 h; oral administration of 30 mg/kg, LPS 5 μg i.p. 60 minutes later, plasma after 90 minutes; read-out: TNF-α production suppressing action
[3] = test system: rabbit normal intraocular pressure; test: Intraocular pressure reducing action; format: in vivo, Japanese white rabbit; conditions: Oryctolagus cuniculus, topical, read-out: intraocular pressure reducing degree; for inhibition in vivo at 3000 µM: 3 mM aqueous solution, 50 μl to the left eye, max IOP reduction (2, 4, 6 hours) / value immediately before administration; for inhibition in vivo at 1000 µM: test compound of 1 mM, same test as Test Example 3
Summary of the method: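 Japanese white rabbits (~2 kg) under topical anaesthesia received 50 μl of a 3 mM aqueous test solution in the left eye, right eye untreated. IOP read by tonometer before and at 2, 4, 6 h; maximal left–right difference divided by pre-dose IOP ×100 gives % reduction.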

Structure (SMILES)	walk distance compared with the solvent repetitive administration group [1]	Inventive compound repetitive administration group (average distance (m)) [1] [m]	inhibition at 10 µM [2] [%]	inhibition in vivo at 30 mg/kg (TNF-α production) [%]	inhibition in vivo at 3000 µM [3] [%]	inhibition in vivo at 1000 µM [3] [%]
CN[C@H]1CCN(S(=O)(=O)c2cccc3cncc(C)c23)C1 [Example 8-3]	extended the walk distance	224	≥ 50	≥ 50	≥ 20	≥ 20
N[C@H]1CCN(S(=O)(=O)c2cccc3cncc(Cl)c23)C1 [Example 19-1, (S)-3-Amino-1-(4-chloro-5-isoquinolinesulfonyl)pyrrolidine]			≥ 50	≥ 50	≥ 20	
CN[C@H]1CCN(S(=O)(=O)c2cccc3cncc(Cl)c23)C1 [Example 19-3, (S)-1-(4-Chloro-5-isoquinolinesulfonyl)-3-(methylamino)pyrrolidine]	extended the walk distance	285	≥ 50	≥ 50	≥ 20	≥ 20
CN[C@H]1CCN(S(=O)(=O)c2cccc3c(O)ncc(Cl)c23)C1 [Example 36-1, (S)-1-(1-Hydroxy-4-chloro-5-isoquinolinesulfonyl)-3-(methylamino)pyrrolidine]	extended the walk distance	298	≥ 50	≥ 50	10 to 20	

— patent US7964613B2 (Asahi Kasei Pharma Corporation, priority 2007, dated 2011)
